Laboratory results reported in US11944605B2, “Rapamycin analogs and uses thereof” (Janssen Pharmaceutica NV, priority 2018, dated 2024).
In brackets after ≈: the same amount, converted by molar mass. Entries after “also recorded” stand apart in the source; their conditions may differ.

How the values were obtained:
[1] = system: pS6K1 (p-p70 S6 Kinase (Thr389)) in MCF-7 cells; experiment: AlphaLISA Ultra pS6K1 Assay; type: cell-based; conditions: Homo sapiens, 1.5 h; MCF7 cells, 90 min
Summary of the method: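 MCF-7 cells were seeded for 20–24 h, refed with fresh medium for 2 h, then treated with compound for 90 min at 0.5% final DMSO. Lysates were frozen at −80 °C, thawed and assayed by AlphaLISA with acceptor then donor beads, 2 h each.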

[2] = system: pAKT (p-Akt 1/2/3 (Ser473)) in MCF-7 cells; experiment: AlphaLISA Ultra pAKT Assay; type: cell-based; conditions: Homo sapiens, 1.5 h; MCF7 cells, 90 min
Description: AlphaLISA Ultra pAKT Assay
1. MCF-7 cells in Corning 3701 plate and incubate for 20˜24 hour.
16,000˜20,000 cells will be seeded in 36 μL medium per well.
2. Change the culture medium with fresh medium and incubate for another 90 minutes.
3. […]
4. Aspirate […] by HAMILTON, 10 μL rest per well.
5. Add 10 μL 2× lysis buffer using HAMILTON; total volume in wells is 20 μL. Allow cells to shake for 30 min. Cover plate by plastic foil and store plate at −80° C. up to analysis.
6. Thaw cell lysate at RT and transfer 10 ul lysate to assay plate (Optiplate-384).
7. Add 5 μL acceptor beads into assay plate and incubation for 2 hours
8. Add 5 μL donor beads and incubation for 2 hours
9. Count the plate by EnSpire Multimode Plate Reader

[3] = Solubility in 100 mM phosphate buffer (pH 7.4); type: physicochemical; conditions: pH 7.4, aqueous buffer
Excerpt: The compound numbers correspond to the compound numbers in Table 1.

mTORC1 over mTORC2 = experiment: mTORC1 selectivity over mTORC2 at 24 hrs (Western blot based pS6K1 and pAKT assay); type: cell-based; conditions: 24 hrs
[4] = system: mTORC1 pathway (pS6K1 T389) in PC3 cells; experiment: Western blot, mTORC1 pathway (pS6K1) in PC3 cells; type: cell-based; conditions: PC3 cells, 24 hours
Description: (§1) Western Blot Based pS6K1 and pAKT Assay at 24 and 48 Hour Timepoints
(§2) 1. Seed six well plate with 500,000 PC3 cells per well and incubate for 20˜24 hour.
(§3) 2. Add compounds into the cell plate. Incubate for 24 to 48 hours.
(§4) 4. Plate is placed on ice and the media is removed via aspiration. The wells are washed with 1 mL of 1× PBS and then fully aspirated.
(§5) 5. 110 μL of 1% Triton Lysis Buffer is added and each well is scraped vigorously.
(§6) 6. Cell homogenates are transferred to 1.5 mL eppendorf tubes on ice and spun down at 4° C. for 10 minutes at 10,000 rpm.
(§7) 9. The membranes were washed 3× with TBS-T with a 5 minute incubation between each wash then incubated with secondary antibody (LiCor IRDye 800 Donkey Anti Rabbit) for at least 30 minutes.
(§8) 10. The membranes were washed 3× with TBS-T with a 5 minute incubation between each wash.
(§9) 11. The gels were then incubated for 5 minutes with PBS at room temperature then imaged using a Li-Cor.
(§10) The methods employed were substantially similar to those described above. Compounds were evaluated in PC3 cells, Jurkat cells, wild-type mouse embryotic fibroblast (MEF) cells, tuberous sclerosis 2 (TSC2) negative (TSC −/−) MEF cells, and tuberous sclerosis 2 (TSC2) positive (TSC +/+) MEF cells. Cells were incubated with compounds of the present invention for various time periods (e.g., 5 minutes, 15 minutes, 30 minutes, 90 minutes, 24 hours, or 48 hours), and evaluated according to known methodologies, such as those herein described.

[5] = system: mTORC2 pathway (Akt phosphorylation) in PC3 cells; experiment: Western blot, mTORC2 pathway (pAkt) in PC3 cells; type: cell-based; conditions: 24 hours
Description: as §1, §2, §3, §4, §5, §6, §7, §8, §9, §10

| Compound | IC50 [1] | IC50 [2] | solubility [3] | mTORC1 selective @ 24 hrs (mTORC1 over mTORC2) | inhibition of the mTORC1 pathway [4] | inhibition of mTORC2 (Akt phosphorylation) [5] |
| --- | --- | --- | --- | --- | --- | --- |
| CO[C@@H]1C[C@H](C[C@@H](C)[C@@H]2CC(=O)[C@H](C)/C=C(\C)[C@@H](O)[C@@H](OC)C(=O)[C@H](C)C[C@H](C)/C=C/C=C/C=C(\C)[C@@H](OCCOCCOCCO)C[C@@H]3CC[C@@H](C)[C@@](O)(O3)C(=O)C(=O)N3CCCC[C@H]3C(=O)O2)CC[C@H]1O [Compound I-29] | < 0.1 nM | ≥ 100 nM | 30 to 60 µM (≈ 31 to 61.9 µg/mL) | – | – | – |
| CO[C@@H]1C[C@H](C[C@@H](C)[C@@H]2CC(=O)[C@H](C)/C=C(\C)[C@@H](O)[C@@H](OC)C(=O)[C@H](C)C[C@H](C)/C=C/C=C/C=C(\C)[C@H](OCCOCCOCCO)C[C@@H]3CC[C@@H](C)[C@@](O)(O3)C(=O)C(=O)N3CCCC[C@H]3C(=O)O2)CC[C@H]1O [Compound I-30] | 0.1 to 1 nM | ≥ 100 nM | > 60 µM | – | – | – |
| CO[C@@H]1C[C@H](C[C@@H](C)[C@@H]2CC(=O)[C@H](C)/C=C(\C)[C@@H](O)[C@@H](OC)C(=O)[C@H](C)C[C@H](C)/C=C/C=C/C=C(\C)C(OCC3COCCOCCOCCO3)C[C@@H]3CC[C@@H](C)[C@@](O)(O3)C(=O)C(=O)N3CCCC[C@H]3C(=O)O2)CC[C@H]1O (stereo partly drawn) [I-10] | < 0.1 nM | ≥ 100 nM | – | YES | – | – |
| CO[C@@H]1C[C@H](C[C@@H](C)[C@@H]2CC(=O)[C@H](C)/C=C(\C)[C@@H](O)[C@@H](OC)C(=O)[C@H](C)C[C@H](C)/C=C/C=C/C=C(\C)C(OCCOCCOCCOCCO)C[C@@H]3CC[C@@H](C)[C@@](O)(O3)C(=O)C(=O)N3CCCC[C@H]3C(=O)O2)CC[C@H]1OCCO (stereo partly drawn) [I-22, (21E,23E,25E,26E,38R,39S,40R,41R,42S,45S,47S,49R,50R,59R)-49, 59-dihydroxy-46-[2-[2-[2-(2-hydroxyethoxy)ethoxy]ethoxy]ethoxy]-47-[(1R)-2-[(1S,2R, 3R)-3-(2-hydroxyethoxy)-2-methoxy-cyclohexyl]-1-methyl-ethyl]-50-methoxy-38,39,40,41,51,52-hexamethyl-70, 71-dioxa-60-azatricyclohexatriaconta-21,23,25(51),26(52)-tetraene-53, 54,55,56,57-pentone] | 0.1 to 1 nM | ≥ 100 nM | – | YES | – | – |
| CO[C@@H]1C[C@H](C[C@@H](C)[C@@H]2CC(=O)[C@H](C)/C=C(\C)[C@@H](O)[C@@H](OC)C(=O)[C@H](C)C[C@H](C)/C=C/C=C/C=C(\C)C(OCCOCCO)C[C@@H]3CC[C@@H](C)[C@@](O)(O3)C(=O)C(=O)N3CCCC[C@H]3C(=O)O2)CC[C@H]1OCCO (stereo partly drawn) [I-23, (21E,23E,25E,26E,34R,35S,36R,37R,38S,41S,43S,45R,46R,55R)-45,55-dihydroxy-42-[2-(2-hydroxyethoxy)ethoxy]-43-[(1R)-2-[(1S,2R,3R)-3-(2-hydroxyethoxy)-2-methoxy-cyclohexyl]-1-methyl-ethyl]-46-methoxy-34, 35,36,37,47,48-hexamethyl-66,67-dioxa-56-azatricyclohexatriaconta-21, 23,25(47),26(48)-tetraene-49,50,51,52,53-pentone] | < 0.1 nM | ≥ 100 nM | – | YES | – | – |
| CO[C@@H]1C[C@H](C[C@@H](C)[C@@H]2CC(=O)[C@H](C)/C=C(\C)[C@@H](O)[C@@H](OC)C(=O)[C@H](C)C[C@H](C)/C=C/C=C/C=C(\C)C(OCC(O)CO)C[C@@H]3CC[C@@H](C)[C@@](O)(O3)C(=O)C(=O)N3CCCC[C@H]3C(=O)O2)CC[C@H]1O (stereo partly drawn) [I-25, (21E,23E,25E,26E,30R,31S,32R,33R,35R,37S,39S,40S,41R,42R,52S)-39-(2,3-dihydroxypropoxy)-41, 52-dihydroxy-40-[(1S)-2-[(1S,3R,4R)-4-hydroxy-3-methoxy-cyclohexyl]-1-methyl-ethyl]-42-methoxy-30, 31,32,33,43,44-hexamethyl-64,65-dioxa-53-azatricyclohexatriaconta-21, 23,25(43),26(44)-tetraene-45,46,47,48,49-pentone] | 0.1 to 1 nM | ≥ 100 nM | – | YES | – | – |
| CO[C@@H]1C[C@H](C[C@@H](C)[C@@H]2CC(=O)[C@H](C)/C=C(\C)[C@@H](O)[C@@H](OC)C(=O)[C@H](C)C[C@H](C)/C=C/C=C/C=C(\C)C(OCCOCCOCCOCCOCCOCCOCCOCCOCCOCCOCCO)C[C@@H]3CC[C@@H](C)[C@@](O)(O3)C(=O)C(=O)N3CCCC[C@H]3C(=O)O2)CC[C@H]1O (stereo partly drawn) [I-96, (21E,23E,25E,26E,50R,51S,52R,53R,55S,57S,60S,61R,62R,71R)-61, 71-dihydroxy-59-[2-[2-[2-[2-[2-[2-[2-[2-[2-[2-(2-hydroxyethoxy)ethoxy]ethoxy]ethoxy]ethoxy]ethoxy]ethoxy]ethoxy]ethoxy]ethoxy]ethoxy]-60-[(1R)-2-[(1S,3R,4R)-4-hydroxy-3-methoxy-cyclohexyl]-1-methyl-ethyl]-62-methoxy-50, 51,52,53,63,64-hexamethyl-82,83-dioxa-72-azatricyclohexatriaconta-21, 23,25(63),26(64)-tetraene-65,66,67,68,69-pentone] | 0.1 to 1 nM | – | – | YES | strong inhibition | do not inhibit |
| CO[C@@H]1C[C@H](C[C@@H](C)[C@@H]2CC(=O)[C@H](C)/C=C(\C)[C@@H](O)[C@@H](OC)C(=O)[C@H](C)C[C@H](C)/C=C/C=C/C=C(\C)C(OCCOCCOCCOCCOCCOCCOCCO)C[C@@H]3CC[C@@H](C)[C@@](O)(O3)C(=O)C(=O)N3CCCC[C@H]3C(=O)O2)CC[C@H]1OCCO (stereo partly drawn) [I-99, (21E,23E,25E,26E,44R,45S,46R,47R,49S,51S,54S,55R,56R,65R)-55, 65-dihydroxy-53-[2-[2-[2-[2-[2-[2-(2-hydroxyethoxy)ethoxy]ethoxy]ethoxy]ethoxy]ethoxy]ethoxy]-54-[(1R)-2-[(1S, 3R,4R)-4-(2-hydroxyethoxy)-3-methoxy-cyclohexyl]-1-methyl-ethyl]-56-methoxy-44, 45,46,47,57,58-hexamethyl-76,77-dioxa-66-azatricyclohexatriaconta-21, 23,25(57),26(58)-tetraene-59,60,61,62,63-pentone] | 0.1 to 1 nM | – | – | YES | appreciable concentration dependent inhibition; also recorded: moderate concentration dependent inhibition | do not inhibit |
| CO[C@@H]1C[C@H](C[C@@H](C)[C@@H]2CC(=O)[C@H](C)/C=C(\C)[C@@H](O)[C@@H](OC)C(=O)[C@H](C)C[C@H](C)/C=C/C=C/C=C(\C)C(OCC(COCCC#N)(COCCC#N)COCCC#N)C[C@@H]3CC[C@@H](C)[C@@](O)(O3)C(=O)C(=O)N3CCCC[C@H]3C(=O)O2)CC[C@H]1O (stereo partly drawn) [I-101, 3-[2,2-bis(2-cyanoethoxymethyl)-3-[[(21E, 23E,25E,26E,41R,42S,43R,44R,46S,48S,51S,52R,53R,62R)-52,62-dihydroxy-51-[(1R)-2-[(1S, 3R,4R)-4-hydroxy-3-methoxy-cyclohexyl]-1-methyl-ethyl]-53-methoxy-41, 42,43,44,54,55-hexamethyl-56,57,58,59,60-pentaoxo-76,77-dioxa-67-azatricyclohexatriaconta-21, 23,25(54),26(55)-tetraen-50-yl]oxy]propoxy]propanenitrile] | 0.1 to 1 nM | – | – | YES | strong inhibition; also recorded: appreciable concentration dependent inhibition; also recorded: moderate concentration dependent inhibition | do not inhibit |
